We go through 15 compounds from PubChem BioAssay (NCI).

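Briefly, cells in 96-well plates were exposed to five compound concentrations for 48 h, and endpoints were estimated by linear interpolation. GI50 = concentration required for 50% inhibition of growth. The concentration for full growth arrest is given as TGI.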 Where only a bound is given, the exact number is not on record here.

One experiment deals with HCT-116 colon. Put plainly: DTP human tumour cell line panel, 48 h.
One may read the GI50 as the concentration that inhibits growth by half. By TGI is commonly meant the concentration at which net growth stops. A high value points to lower sensitivity of the cells. `COc1ccc(-c2nc(Nc3cc(C)[nH]n3)c3ccccc3n2)cc1`: the GI50 is 0.744 µM and the TGI was 17.5 µM.
For `CN(C)CCCn1c(=O)c2ccccc2c2ccccc21`, in that order: 4.74 µM and > 100 µM.
For the compound `O=c1[nH]c(=O)n(C2CC(O)C(COP(=O)(OCc3ccc([N+](=O)[O-])o3)N(CCCCCl)CC(O)CO)O2)cc1F` (configuration not stated), the GI50 is 0.999 µM and the concentration for total growth inhibition (TGI) was > 100 µM.
As to `O=C1OC(=O)C(=C\c2ccc3c(c2)OCO3)/C1=C/c1ccc2c(c1)OCO2`, the concentration for total growth inhibition (TGI) was > 100 µM.
For the compound `CC(C)NCCCn1c(Sc2cc3c(cc2I)OCO3)nc2c(N)ncnc21`, the 50% growth inhibitory concentration (GI50) was 0.0628 µM and the concentration for total growth inhibition (TGI) is > 100 µM.
For `O=C(/C=C\c1cccc([N+](=O)[O-])c1)/C=C/c1cccc([N+](=O)[O-])c1`, in that order: 0.2 µM and 0.407 µM.
As for `CN1C(=O)N(C)C2C1NN=c1s/c(=C\c3ccc(C(F)(F)F)cc3)c(=O)n12` (configuration not stated), the GI50 is 1.55 µM and the TGI is > 100 µM.
In the case of `N#Cc1c(N2CCOCC2)nc(=S)[nH]c1-c1ccco1`, the GI50 was 15.6 µM and the TGI is > 100 µM.

In the next experiment the test system is U251 CNS. Briefly: DTP human tumour cell line panel, 48 h.
Regarding `CN[C@@H](C)C(=O)N[C@H](C(=O)N1CCC[C@H]1C(=O)Nc1sc(-c2ncco2)nc1-c1ccccc1)C1CCCCC1`, the GI50 was 26.9 µM and the concentration for total growth inhibition (TGI) is > 77.7 µM.
For `CC1=C2[C@@H](CC1)[C@]1(C)O[C@@](c3ccccc3)(C[C@H]1OC(=O)CO)[C@H]2OC(=O)/C=C/c1ccccc1`, in that order: 13.9 µM and 28.1 µM.
For the compound `NC(=O)c1csc(C2OC(CO)C(O)C2O)n1` (configuration not stated), the GI50 was 45.5 µM and the TGI came to 2540 µM.
As for `CCCN(CCS(C)(=O)=O)Cc1ccc(-c2ccc3ncnc(Nc4ccc(OCc5cccc(F)c5)c(Cl)c4)c3c2)o1`, the GI50 is > 25 µM and the TGI was > 25 µM.
On to `CC(C)C[C@H](NC(=O)CNC(=O)c1cc(Cl)ccc1Cl)B1OC(=O)CC(CC(=O)O)(C(=O)O)O1` (some centres not stated), for which the concentration for 50% growth inhibition (GI50) is 0.0874 µM and the concentration for total growth inhibition (TGI) came to 5.64 µM.
For `CCc1ccc2c(c1)N(CCO)C1=C(C(=O)OC1)C2c1cccc(Br)c1` (configuration not stated), the GI50 was 0.494 µM and the TGI was found to be 14.5 µM.
For `CO/N=C(\COc1ccc2c(c1)[nH]c1ccccc12)c1ccc(F)cc1`, in that order: 25.4 µM and > 100 µM.
The matching figures for `COc1ccc(-c2nc(Nc3cc(C)[nH]n3)c3ccccc3n2)cc1`: 1.16 µM and > 100 µM.
For the compound `CN(C)CCCn1c(=O)c2ccccc2c2ccccc21`, the GI50 is 13.8 µM and the total growth inhibition concentration (TGI) amounted to 78.5 µM.
With `O=c1[nH]c(=O)n(C2CC(O)C(COP(=O)(OCc3ccc([N+](=O)[O-])o3)N(CCCCCl)CC(O)CO)O2)cc1F` (configuration not stated), the TGI is > 100 µM.
The same measure, in the same setting: under `O=C1OC(=O)C(=C\c2ccc3c(c2)OCO3)/C1=C/c1ccc2c(c1)OCO2` stands > 100 µM.
Consider `CC(C)NCCCn1c(Sc2cc3c(cc2I)OCO3)nc2c(N)ncnc21`, for which the GI50 is 0.128 µM and the concentration for total growth inhibition (TGI) is > 100 µM.
The matching figures for `O=C(/C=C\c1cccc([N+](=O)[O-])c1)/C=C/c1cccc([N+](=O)[O-])c1`: 2.06 µM and 5.21 µM.
For `CN1C(=O)N(C)C2C1NN=c1s/c(=C\c3ccc(C(F)(F)F)cc3)c(=O)n12` (configuration not stated), the GI50 was 0.569 µM and the TGI amounted to 14.4 µM.
For `N#Cc1c(N2CCOCC2)nc(=S)[nH]c1-c1ccco1`, in that order: 20.2 µM and > 100 µM.

The test system of a further experiment is OVCAR-8 ovarian. Briefly: DTP human tumour cell line panel, 48 h.
With `CN[C@@H](C)C(=O)N[C@H](C(=O)N1CCC[C@H]1C(=O)Nc1sc(-c2ncco2)nc1-c1ccccc1)C1CCCCC1`, the GI50 is 17.2 µM and the total growth inhibition concentration (TGI) turned out to be 42.7 µM.
On to `CC1=C2[C@@H](CC1)[C@]1(C)O[C@@](c3ccccc3)(C[C@H]1OC(=O)CO)[C@H]2OC(=O)/C=C/c1ccccc1`, for which the GI50 is 0.354 µM and the concentration for total growth inhibition (TGI) was 19.9 µM.
For `NC(=O)c1csc(C2OC(CO)C(O)C2O)n1` (configuration not stated), the GI50 was 31.1 µM and the TGI turned out to be 1570 µM.
On to `CCCN(CCS(C)(=O)=O)Cc1ccc(-c2ccc3ncnc(Nc4ccc(OCc5cccc(F)c5)c(Cl)c4)c3c2)o1`, for which the GI50 was > 25 µM and the concentration for total growth inhibition (TGI) was > 25 µM.
With `CC(C)C[C@H](NC(=O)CNC(=O)c1cc(Cl)ccc1Cl)B1OC(=O)CC(CC(=O)O)(C(=O)O)O1` (some centres not stated), the GI50 is 0.066 µM and the concentration for total growth inhibition (TGI) worked out at 1.44 µM.
For `CCc1ccc2c(c1)N(CCO)C1=C(C(=O)OC1)C2c1cccc(Br)c1` (configuration not stated), the GI50 was 0.847 µM and the total growth inhibition concentration (TGI) is 19.6 µM.
With `CO/N=C(\COc1ccc2c(c1)[nH]c1ccccc12)c1ccc(F)cc1`, the GI50 was 10.4 µM and the TGI was > 100 µM.
`COc1ccc(-c2nc(Nc3cc(C)[nH]n3)c3ccccc3n2)cc1`: the GI50 is 6.16 µM and the TGI is 99.8 µM.
For `CN(C)CCCn1c(=O)c2ccccc2c2ccccc21`, in that order: 7.03 µM and > 100 µM.
Take `O=c1[nH]c(=O)n(C2CC(O)C(COP(=O)(OCc3ccc([N+](=O)[O-])o3)N(CCCCCl)CC(O)CO)O2)cc1F` (configuration not stated): the GI50 was 0.182 µM and the total growth inhibition concentration (TGI) was > 100 µM.
On to `O=C1OC(=O)C(=C\c2ccc3c(c2)OCO3)/C1=C/c1ccc2c(c1)OCO2`, for which the concentration for total growth inhibition (TGI) was > 100 µM.
Consider `CC(C)NCCCn1c(Sc2cc3c(cc2I)OCO3)nc2c(N)ncnc21`, for which the 50% growth inhibitory concentration (GI50) was 0.156 µM and the TGI was > 100 µM.
For the compound `O=C(/C=C\c1cccc([N+](=O)[O-])c1)/C=C/c1cccc([N+](=O)[O-])c1`, the GI50 was 5.25 µM and the TGI was > 100 µM.
With `CN1C(=O)N(C)C2C1NN=c1s/c(=C\c3ccc(C(F)(F)F)cc3)c(=O)n12` (configuration not stated), the GI50 is 2.71 µM and the concentration for total growth inhibition (TGI) is 55.7 µM.
As for `N#Cc1c(N2CCOCC2)nc(=S)[nH]c1-c1ccco1`, the GI50 is 18.3 µM and the TGI is > 100 µM.
